In patent US7019015B2, “Fungicide for plants” (Valent BioSciences, Inc., priority 2003, dated 2006):

Key:
Rhizoctonia solani = test: Contact evaluation (microtiter plate), Rhizoctonia solani; format: cell-based; conditions: Rhizoctinia solani
Experimental: (§1) Compound solution: Contact evaluations were conducted to determine the anti-fungal activity of each compound against Botrytis cinerea, Sclerotinia sclerotiorum, Pythium aphanidermatum, Rhizoctonia solani, Cercospora arachidicola, Mycosphaerella fijiensis, and Monilinia laxa. Five milligrams of each compound were dissolved in 0.5 milliliter of DMSO for a compound stock solution of 1.0% w/v. Compound stock solutions were serial diluted with DMSO to 20, 10, and 2 ppm final well concentration. Fungi preparation: Botrytis cinerea spores were taken from 6-week-old cultures grown at 22C on full strength potato dextrous agar (PDA) plates. Sclerotinia sclerotiorum, Pythium aphanidermatum, Rhizoctonia solani, and Monilinia laxa mycelia were taken from 4- to 10-day-old shake flask cultures grown at room temperature on full strength potato dextrous broth (PDB). Cercospora arachidicola mycelia were taken from 10- to 14-day-old shake flask cultures grown at room temperature on a full strength PDB amended with peanut oil. Mycosphaerella fijiensis mycelia were taken from 10- to 14-day-old shake flask cultures grown at room temperature on V8 juice broth. Sclerotinia sclerotiorum, Pythium aphanidermatum, Rhizoctonia solani, Cercospora arachidicola, and Mycosphaerella fijiensis mycelia (0.4 g mycelia) were blended for 45 seconds in 20 mL sterile de-ionized water. Monilinia laxa mycelia (1 g mycelia) was blended for 45 seconds in 30 mL of sterile de-ionized water. Botrytis cinerea spores were diluted with quarter strength PDB to 1×10^5 spores/mL final well concentration. All mycelia were diluted in water (1:5 mycelia:water) before distributing into the wells. Microtiter plate preparation: Compound solution (10 :L), quarter strength PDB (900 :L) and fungi preparation (100 :L) were sequentially distributed into 48-well microtiter plates (n=3 replications/compound/rate). A blank consisted of quarter strength PDB and fungi preparation. […] Final readings were the average of the three wells (Table 1).

Pythium aphanidermatum = test: Contact evaluation (microtiter plate), Pythium aphanidermatum; format: cell-based
Experimental: as §1

Monilinia laxa = test: Contact evaluation (microtiter plate), Monilinia laxa; format: cell-based
Experimental: as §1

Botrytis cinerea [1] = test: Contact evaluation (microtiter plate), Botrytis cinerea; format: cell-based
Experimental: as §1

Cercospora arachidicola = test: Contact evaluation (microtiter plate), Cercospora arachidicola; format: cell-based
Experimental: as §1

Sclerotinia sclerotiorum = test: Contact evaluation (microtiter plate), Sclerotinia sclerotiorum; format: cell-based; conditions: Sclerotinia scierotionum
Experimental: as §1

Mycosphaerella fijiensis = test: Contact evaluation (microtiter plate), Mycosphaerella fijiensis; format: cell-based
Experimental: as §1

Botrytis cinerea [2] = test: Detached bean leaf bioassay, fungal control; format: in vivo; conditions: 200 ppm on detached bean leaf; 100 minus percent necrotic area, three days after inoculation
Experimental: Detached Bean Leaf Bioassay
Compound solution: Compound solutions were prepared by diluting compound stock solutions (1.0% w/v compound in DMSO) to 200 ppm with 0.01% w/v Triton X-100.
Spore solution preparation: Botrytis cinerea spores were taken from 6-week-old cultures grown at 22C on full strength potato dextrous agar (PDA) plates and harvested in 1:16 frozen orange juice concentrate:water. Botrytis cinerea spore solutions were prepared by diluting spore cultures to 5×10^4 spores/mL with 1:16 frozen orange juice concentrate:water.
Plant material: Middle trifoliate leaves of greenhouse grown Phaseolus vulgaris (Bush bean cv. Blue Lake 274) were excised and placed on a plastic grid above a tray containing moist towels.
Treatment method: One half of the adaxial surface of the leaf was treated with the compound solution (100 :L) using a 3 cm Bacti Cell Spreader. A blank consisted of 0.01% w/v Triton X-100. A commercial fungicide control (200 ppm diluted with water) consisted of Scala. […]
Fungal control rating: Three days after inoculation with Botrytis, the percent necrotic area under the inoculation droplet was determined. Since the areas under the blank (0.01% w/v Triton X-100) were 100% infected, fungal control was expressed as 100 minus the percent necrotic area, and thus 0% infected is 100% fungal control (n=3 leaves/compound, 5 inoculation droplets/leaf, Table 2).

[3] = tested on: Phaseolus vulgaris (Bush bean cv. Blue Lake 274) leaves; test: Detached bean leaf bioassay, phytotoxicity rating; format: in vivo
Experimental: Compound solution: Compound solutions were prepared by diluting compound stock solutions (1.0% w/v compound in DMSO) to 200 ppm with 0.01% w/v Triton X-100. Plant material: Middle trifoliate leaves of greenhouse grown Phaseolus vulgaris (Bush bean cv. Blue Lake 274) were excised and placed on a plastic grid above a tray containing moist towels. Treatment method: One half of the adaxial surface of the leaf was treated with the compound solution (100 :L) using a 3 cm Bacti Cell Spreader. A blank consisted of 0.01% w/v Triton X-100. A commercial fungicide control (200 ppm diluted with water) consisted of Scala. After the solutions dried, the trays containing the leaves were covered and held one day in a growth chamber (22C). The adaxial surfaces of the leaves were then inoculated with 5–60 :L droplets of Botrytis cinerea spore solution. Phytotoxicity ratings: Phytotoxicity was rated as 0=no phytotoxicity, 1=slight phytotoxicity, 2=moderate phytotoxicity, or 3=excessive phytotoxicity (Table 2).

COc1ccc(C2(OC)c3ccccc3N(c3ccccc3)c3ccccc32)cc1 [formula I, 9-phenyl-10-methoxy-10-(4-methoxyphenyl)-9,10-dihydroacridine]
Control of fungi (full, partial, none) (Rhizoctonia solani; fungicide rate 2 ppm): Full | Control of fungi (full, partial, none) (Rhizoctonia solani; fungicide rate 10 ppm): Full | Control of fungi (full, partial, none) (Rhizoctonia solani; fungicide rate 20 ppm): Full | Control of fungi (full, partial, none) (Pythium aphanidermatum; fungicide rate 2 ppm): Full | Control of fungi (full, partial, none) (Pythium aphanidermatum; fungicide rate 10 ppm): Full | Control of fungi (full, partial, none) (Pythium aphanidermatum; fungicide rate 20 ppm): Full | Control of fungi (full, partial, none) (Monilinia laxa; fungicide rate 2 ppm): Full | Control of fungi (full, partial, none) (Monilinia laxa; fungicide rate 10 ppm): Full | Control of fungi (full, partial, none) (Monilinia laxa; fungicide rate 20 ppm): Full | Control of fungi (full, partial, none) (Botrytis cinerea [1]; fungicide rate 2 ppm): Partial | Control of fungi (full, partial, none) (Botrytis cinerea [1]; fungicide rate 10 ppm): Full | Control of fungi (full, partial, none) (Botrytis cinerea [1]; fungicide rate 20 ppm): Full | Control of fungi (full, partial, none) (Cercospora arachidicola; fungicide rate 2 ppm): None | Control of fungi (full, partial, none) (Cercospora arachidicola; fungicide rate 10 ppm): Full | Control of fungi (full, partial, none) (Cercospora arachidicola; fungicide rate 20 ppm): Full | Control of fungi (full, partial, none) (Sclerotinia sclerotiorum; fungicide rate 2 ppm): Partial | Control of fungi (full, partial, none) (Sclerotinia sclerotiorum; fungicide rate 10 ppm): Full | Control of fungi (full, partial, none) (Sclerotinia sclerotiorum; fungicide rate 20 ppm): Full | Control of fungi (full, partial, none) (Mycosphaerella fijiensis; fungicide rate 2 ppm): None | Control of fungi (full, partial, none) (Mycosphaerella fijiensis; fungicide rate 10 ppm): Partial | Control of fungi (full, partial, none) (Mycosphaerella fijiensis; fungicide rate 20 ppm): Full | Botrytis cinerea control (200 ppm) (Botrytis cinerea [2]): 80% | Phytotoxity (200 ppm) [3]: Slight
